Experimental data taken from ChEMBL document CHEMBL2010724, “Oroxylin A analogs exhibited strong inhibitory activities against iNOS-mediated nitric oxide (NO) production” (Bioorg Med Chem Lett, 2012).

Columns and labels:
[1] = target: T1, Nitric oxide synthase, inducible (Mus musculus) (UniProt P29477); test: Inhibition of iNOS-induced NO production in LPS-stimulated mouse BV2 cells at 10 uM after 24 hrs; assay type: cell-based; details: BV-2
T1 sequence (whole entry): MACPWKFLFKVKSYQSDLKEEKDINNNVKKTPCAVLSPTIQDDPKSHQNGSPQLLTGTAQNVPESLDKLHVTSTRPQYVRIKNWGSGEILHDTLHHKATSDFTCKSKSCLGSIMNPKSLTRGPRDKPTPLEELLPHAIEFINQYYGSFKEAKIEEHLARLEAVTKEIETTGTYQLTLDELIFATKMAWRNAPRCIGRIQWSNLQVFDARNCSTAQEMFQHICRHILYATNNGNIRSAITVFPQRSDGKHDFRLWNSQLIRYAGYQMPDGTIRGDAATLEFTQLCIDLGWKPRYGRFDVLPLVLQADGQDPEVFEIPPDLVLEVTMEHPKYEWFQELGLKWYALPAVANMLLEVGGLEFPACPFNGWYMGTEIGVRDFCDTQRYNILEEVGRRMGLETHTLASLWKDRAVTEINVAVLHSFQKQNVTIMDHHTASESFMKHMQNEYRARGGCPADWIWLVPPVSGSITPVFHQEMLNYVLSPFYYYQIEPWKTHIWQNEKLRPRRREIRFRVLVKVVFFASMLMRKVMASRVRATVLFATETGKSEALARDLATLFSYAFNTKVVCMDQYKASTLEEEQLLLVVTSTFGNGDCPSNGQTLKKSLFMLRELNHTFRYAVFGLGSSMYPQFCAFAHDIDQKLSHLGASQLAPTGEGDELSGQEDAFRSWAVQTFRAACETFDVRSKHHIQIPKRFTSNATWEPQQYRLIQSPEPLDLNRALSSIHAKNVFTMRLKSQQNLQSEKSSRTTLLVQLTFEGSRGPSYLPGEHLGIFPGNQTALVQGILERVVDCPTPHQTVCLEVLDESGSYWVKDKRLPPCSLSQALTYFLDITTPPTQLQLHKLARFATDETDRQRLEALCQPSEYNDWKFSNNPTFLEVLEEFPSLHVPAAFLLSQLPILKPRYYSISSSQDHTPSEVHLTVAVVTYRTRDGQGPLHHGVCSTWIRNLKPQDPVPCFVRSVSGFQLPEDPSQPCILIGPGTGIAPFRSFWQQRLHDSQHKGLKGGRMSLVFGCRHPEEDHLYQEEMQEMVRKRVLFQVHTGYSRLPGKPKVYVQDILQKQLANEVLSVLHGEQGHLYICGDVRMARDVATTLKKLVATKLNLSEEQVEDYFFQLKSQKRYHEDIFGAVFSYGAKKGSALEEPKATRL

[2] = target: T2, Nitric oxide synthase, inducible (Mus musculus, UniProt P29477); test: Inhibition of iNOS-induced NO production in LPS-stimulated mouse BV2 cells after 24 hrs; assay type: cell-based; details: bv-2
T2 sequence (P29477 whole entry): T1 sequence (whole entry)

inhibition [1] [%] | IC50 [2] [µM] | Structure (SMILES)
45.7 | 4.73 | COc1c(O)cc2oc(-c3ccc([N+](=O)[O-])cc3)cc(=O)c2c1O
10.6 | – | COc1c(O)cc2oc(-c3ccc(F)cc3F)cc(=O)c2c1O
14.2 | – | COc1c(O)cc2oc(-c3ccccc3F)cc(=O)c2c1O
40.8 | 8.58 | COc1c(O)cc2oc(-c3ccc(F)cc3)cc(=O)c2c1O
13.1 | – | COc1c(O)cc2oc(-c3ccc(Cl)c(Cl)c3)cc(=O)c2c1O
26 | – | COc1c(O)cc2oc(-c3ccccc3)cc(=O)c2c1O
40 | 7.8 | COc1c(O)cc(O)c2c(=O)cc(-c3ccccc3)oc12 [WOGONIN]
45.2 | 10.8 | COc1c(O)cc2oc(-c3cccc(Br)c3)cc(=O)c2c1O
8.2 | – | COc1cc(-c2cc(=O)c3c(O)c(OC)c(O)cc3o2)ccc1O
39.9 | 11.4 | COc1c(O)cc2oc(-c3cccc(F)c3)cc(=O)c2c1O
